Consider nine compounds from patent US10175229B2, “Rapid method for measuring cytotoxicity in non-RI system” (NAGASAKI UNIVERSITY, priority 2014, dated 2019).

Molecules are shown by their SMILES.

This assay relates to Histiocytoma U937 cells. Kind of assay: Spontaneous and maximum release of labeled compound, time-resolved fluorometric assay (Eu assay). As to conditions: for maximum release (B) / spontaneous release (A): U937 cells labeled with 25 μM compound for 15 min; for maximum release (B): lysed with 0.125% digitonin in 19% DMSO, time-resolved fluorescence with europium solution; for spontaneous release (A): supernatant added to europium solution, time-resolved fluorescence, wells without digitonin; for spontaneous release (%) (C) (100 × A/B): U937 cells, 25 μM compound, ratio of spontaneous to maximum release. The class given is cell-based. The protocol:
Histiocytoma U937 cells were cultured in 30 mL of RPMI1640 medium under the conditions of 37° C., 5% CO2 overnight, the culture medium (30 mL) was placed in a 50 mL conical tube, and the cell number was counted. After centrifugation at 1700 rpm at 4° C. for 5 min, the supernatant was removed, and the cell pellets were resuspended in RPMI1640 medium at 1×10^6 cells/mL. To the cell suspension (1 mL) in a 15 mL conical tube was added 2.5 μL of a compound represented by the formula (I) or a salt thereof (10 mM stock solution) (final concentration: 25 μM), and the mixture was incubated under the conditions of 37° C., 5% CO2 for 15 min. The cells were washed 3 times with 5 mL of RPMI1640 medium, and resuspended in 5 mL of RPMI1640 medium. The cell suspension (2 mL) was placed in a 15 mL conical tube containing 6 mL of RPMI1640 medium to adjust the cell concentration to 5×10^3 cells/100 μL. The cell suspension (100 μL) was seeded in 6 wells of a 96 flat bottom plate. 100 μL of RPMI1640 medium was added to wells for determining the amount of spontaneous release, and 90 μL of RPMI1640 medium was added to wells for determining the amount of maximum release. The plates were centrifuged at 500 rpm, room temperature for 2 min and incubated under 37° C., 5% CO2 condition for 30 min. A newly-prepared 0.125% digitonin solution in 19% DMSO (mixed solution of 3 mg digitonin, 0.456 mL DMSO and 1.944 mL H2O) (10 μL) was added to the aforementioned wells for determining the amount of maximum release, mixed well and further incubated for 30 min. After incubation, the cell suspension was mixed well again, and centrifuged at 1700 rpm, room temperature for 2 min. After the centrifugation, the supernatant (25 μL) was carefully transferred into wells containing 250 μL of europium solution in a 96 flat bottom plate, and 200 μL of the solution thereof was placed in a 96-well flat bottom plate.
The plate was allowed to stand for 15 min, and the time-resolved fluorescence was measured by ARVO multiplate reader.

For `CCCC(=O)OCOC(=O)c1cccc(-c2cc(OCCOCCO)cc(-c3cccc(C(=O)OCOC(=O)CCC)n3)n2)n1` [Example 7, bis(butyryloxymethyl) 4′-(2-(2-hydroxyethoxy)ethoxy)-2,2′:6′,2″-terpyridine-6,6″-dicarboxylate], the “maximum release (B)” value was determined as 63594, the “spontaneous release (A)” value turned out to be 6133 and the “spontaneous release (%) (C) (100 × A/B)” value is listed as 9.6%.
For `CCCC(=O)OCOC(=O)c1cccc(-c2cc(OCC=O)cc(-c3cccc(C(=O)OCOC(=O)CCC)n3)n2)n1` [Example 4, bis(butyryloxymethyl) 4′-(2-oxyethoxy)-2,2′:6′,2″-terpyridine-6,6″-dicarboxylate], in that order: 43224, 3590 and 8.3%.
`CCCC(=O)OCOC(=O)c1cccc(-c2cc(OCCCO)cc(-c3cccc(C(=O)OCOC(=O)CCC)n3)n2)n1` [Example 6, bis(butyryloxymethyl) 4′-(3-hydroxypropoxy)-2,2′:6′,2″-terpyridine-6,6″-dicarboxylate]: the “maximum release (B)” value turned out to be 103235, the “spontaneous release (A)” value is given as 9538 and the “spontaneous release (%) (C) (100 × A/B)” value was 9.2%.
The like results for `CC(=O)OCOC(=O)c1cccc(-c2cc(OCCO)cc(-c3cccc(C(=O)OCOC(C)=O)n3)n2)n1` [Example 3, bis(acetoxymethyl) 4′-(2-hydroxyethoxy)-2,2′:6′,2″-terpyridine-6,6″-dicarboxylate] were, in that order, 69372, 4890 and 7%.
The like results for `CCCNC(=O)COc1cc(-c2cccc(C(=O)OCOC(C)=O)n2)nc(-c2cccc(C(=O)OCOC(C)=O)n2)c1` [Example 2, bis(acetoxymethyl) 4′-(2-oxo-2-(propylamino)ethoxy)-2,2′:6′,2″-terpyridine-6,6″-dicarboxylate] were, in that order, 60521, 7085 and 11.7%.
For `CC(=O)OCOC(=O)c1cccc(-c2cccc(-c3cccc(C(=O)OCOC(C)=O)n3)n2)n1` [BATDA, bis(acetoxymethyl) 2,2′:6′,2″-terpyridine-6,6″-dicarboxylate, reference compound], in that order: 86785, 14795 and 17%.
As for `CC(=O)OCOC(=O)c1cccc(-c2cc(CO)cc(-c3cccc(C(=O)OCOC(C)=O)n3)n2)n1` [Example 9, bis(acetoxymethyl) 4′-(hydroxymethyl)-2,2′:6′,2″-terpyridine-6,6″-dicarboxylate], the “maximum release (B)” value is 127955, the “spontaneous release (A)” value is 21343 and the “spontaneous release (%) (C) (100 × A/B)” value is listed as 16.7%.
For `CCC(=O)OCOC(=O)c1cccc(-c2cc(OCCO)cc(-c3cccc(C(=O)OCOC(=O)CC)n3)n2)n1` [Example 5, bis(propionyloxymethyl) 4′-(2-hydroxyethoxy)-2,2′:6′,2″-terpyridine-6,6″-dicarboxylate], in that order: 78831, 6991 and 8.9%.
For `CCCC(=O)OCOC(=O)c1cccc(-c2cc(OCCO)cc(-c3cccc(C(=O)OCOC(=O)CCC)n3)n2)n1` [Example 1, bis(butyryloxymethyl) 4′-(2-hydroxyethoxy)-2,2′:6′,2″-terpyridine-6,6″-dicarboxylate], in that order: 65576, 6347 and 9.7%.
